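Five concentrations, 48 hours, 96-well plates. Here, GI50 denotes the concentration required for 50% inhibition of growth. TGI marks complete inhibition of growth.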
How the values were obtained:
Assay in all cases: NCI tumour cell line growth inhibition, 48 h
786-0 renal = tested on: 786-0 renal
A498 renal = tested on: A498 renal
A549 NSCLC = tested on: A549 NSCLC
ACHN renal = tested on: ACHN renal
BT-549 breast = tested on: BT-549 breast
CAKI-1 renal = tested on: CAKI-1 renal
CCRF-CEM leukemia = tested on: CCRF-CEM leukemia
COLO 205 colon = tested on: COLO 205 colon
DU-145 prostate = tested on: DU-145 prostate
EKVX NSCLC = tested on: EKVX NSCLC
HCC-2998 colon = tested on: HCC-2998 colon
HCT-116 colon = tested on: HCT-116 colon
HCT-15 colon = tested on: HCT-15 colon
HL-60(TB) leukemia = tested on: HL-60(TB) leukemia
HOP-62 NSCLC = tested on: HOP-62 NSCLC
HOP-92 NSCLC = tested on: HOP-92 NSCLC
HS 578T breast = tested on: HS 578T breast
HT29 colon = tested on: HT29 colon
IGROV1 ovarian = tested on: IGROV1 ovarian
K-562 leukemia = tested on: K-562 leukemia
KM12 colon = tested on: KM12 colon
LOX IMVI melanoma = tested on: LOX IMVI melanoma
M14 melanoma = tested on: M14 melanoma
MALME-3M melanoma = tested on: MALME-3M melanoma
MCF7 breast = tested on: MCF7 breast
MDA-MB-231 breast = tested on: MDA-MB-231 breast
MDA-MB-435 = tested on: MDA-MB-435
MOLT-4 leukemia = tested on: MOLT-4 leukemia
NCI-H226 lung = tested on: NCI-H226 lung
NCI-H23 lung = tested on: NCI-H23 lung
NCI-H460 lung = tested on: NCI-H460 lung
NCI-H522 lung = tested on: NCI-H522 lung
NCI/ADR-RES ovarian = tested on: NCI/ADR-RES ovarian
OVCAR-3 ovarian = tested on: OVCAR-3 ovarian
OVCAR-4 ovarian = tested on: OVCAR-4 ovarian
OVCAR-5 ovarian = tested on: OVCAR-5 ovarian
OVCAR-8 ovarian = tested on: OVCAR-8 ovarian
PC-3 prostate = tested on: PC-3 prostate
RPMI-8226 leukemia = tested on: RPMI-8226 leukemia
RXF 393 renal = tested on: RXF 393 renal
SF-268 CNS = tested on: SF-268 CNS
SF-295 CNS = tested on: SF-295 CNS
SF-539 CNS = tested on: SF-539 CNS
SK-MEL-2 melanoma = tested on: SK-MEL-2 melanoma
SK-MEL-28 melanoma = tested on: SK-MEL-28 melanoma
SK-MEL-5 melanoma = tested on: SK-MEL-5 melanoma
SK-OV-3 ovarian = tested on: SK-OV-3 ovarian
SN12C renal = tested on: SN12C renal
SNB-19 CNS = tested on: SNB-19 CNS
SNB-75 CNS = tested on: SNB-75 CNS
SR leukemia = tested on: SR leukemia
SW-620 colon = tested on: SW-620 colon
T-47D breast = tested on: T-47D breast
TK-10 renal = tested on: TK-10 renal
U251 CNS = tested on: U251 CNS
UACC-257 melanoma = tested on: UACC-257 melanoma
UACC-62 melanoma = tested on: UACC-62 melanoma
UO-31 renal = tested on: UO-31 renal

Work on `COc1ccc2[nH]c(C(=O)N3CCN(C(=O)OCc4ccc5c(Br)cc(Br)c(O)c5n4)CC3)cc2c1` yielded a GI50 (786-0 renal) of 270 nM, a TGI (786-0 renal) of 759 nM and a GI50 (A498 renal) of 1580 nM. It also gave a TGI (A498 renal) of 2980 nM, a GI50 (A549 NSCLC) of 1680 nM and a TGI (A549 NSCLC) of 3590 nM. The GI50 (ACHN renal) was 170 nM, the TGI (ACHN renal) was 335 nM and the GI50 (BT-549 breast) was 213 nM. The TGI (BT-549 breast) was 585 nM, the GI50 (CAKI-1 renal) was 244 nM and the TGI (CAKI-1 renal) was 749 nM. The GI50 (CCRF-CEM leukemia) was 238 nM, the TGI (CCRF-CEM leukemia) was 1630 nM and the GI50 (COLO 205 colon) was 193 nM. The TGI (COLO 205 colon) was 426 nM, the GI50 (DU-145 prostate) was 396 nM and the TGI (DU-145 prostate) was 1370 nM. The GI50 (EKVX NSCLC) was 1370 nM, the TGI (EKVX NSCLC) was 2930 nM and the GI50 (HCC-2998 colon) was 898 nM. For the same compound, the TGI (HCC-2998 colon) was 2390 nM, the GI50 (HCT-116 colon) was 178 nM and the TGI (HCT-116 colon) was 393 nM. For the same compound, the GI50 (HCT-15 colon) was 219 nM, the TGI (HCT-15 colon) was 596 nM and the GI50 (HL-60(TB) leukemia) was 318 nM. The TGI (HL-60(TB) leukemia) was 1140 nM, the GI50 (HOP-62 NSCLC) was 1590 nM and the TGI (HOP-62 NSCLC) was 3660 nM. For the same compound, the GI50 (HOP-92 NSCLC) was 178 nM, the TGI (HOP-92 NSCLC) was 860 nM and the GI50 (HS 578T breast) was 1050 nM. The TGI (HS 578T breast) was 4290 nM, the GI50 (HT29 colon) was 318 nM and the TGI (HT29 colon) was 1030 nM. The GI50 (IGROV1 ovarian) was 368 nM, the TGI (IGROV1 ovarian) was 1360 nM and the GI50 (K-562 leukemia) was 294 nM. It also gave a TGI (K-562 leukemia) of 978 nM, a GI50 (KM12 colon) of 1370 nM and a TGI (KM12 colon) of 2830 nM. For the same compound, the GI50 (LOX IMVI melanoma) was 172 nM, the TGI (LOX IMVI melanoma) was 334 nM and the GI50 (M14 melanoma) was 262 nM. For the same compound, the TGI (M14 melanoma) was 753 nM, the GI50 (MALME-3M melanoma) was 1020 nM and the TGI (MALME-3M melanoma) was 2370 nM. It also gave a GI50 (MCF7 breast) of 262 nM, a TGI (MCF7 breast) of 1180 nM and a GI50 (MDA-MB-231 breast) of 388 nM. It also gave a TGI (MDA-MB-231 breast) of 1390 nM, a GI50 (MDA-MB-435) of 258 nM and a TGI (MDA-MB-435) of 695 nM. It also gave a GI50 (MOLT-4 leukemia) of 298 nM, a TGI (MOLT-4 leukemia) of 966 nM and a GI50 (NCI-H226 lung) of 496 nM. For the same compound, the TGI (NCI-H226 lung) was 1050 nM, the GI50 (NCI-H23 lung) was 1480 nM and the TGI (NCI-H23 lung) was 3150 nM. For the same compound, the GI50 (NCI-H460 lung) was 1360 nM, the TGI (NCI-H460 lung) was 3140 nM and the GI50 (NCI-H522 lung) was 206 nM. It also gave a TGI (NCI-H522 lung) of 546 nM, a GI50 (NCI/ADR-RES ovarian) of 336 nM and a TGI (NCI/ADR-RES ovarian) of 1760 nM. It also gave a GI50 (OVCAR-3 ovarian) of 197 nM, a TGI (OVCAR-3 ovarian) of 427 nM and a GI50 (OVCAR-4 ovarian) of 302 nM. It also gave a TGI (OVCAR-4 ovarian) of 972 nM, a GI50 (OVCAR-5 ovarian) of 603 nM and a TGI (OVCAR-5 ovarian) of 1980 nM. For the same compound, the GI50 (OVCAR-8 ovarian) was 277 nM, the TGI (OVCAR-8 ovarian) was 857 nM and the GI50 (PC-3 prostate) was 442 nM. The TGI (PC-3 prostate) was 1500 nM, the GI50 (RPMI-8226 leukemia) was 243 nM and the TGI (RPMI-8226 leukemia) was 809 nM. It also gave a GI50 (RXF 393 renal) of 208 nM, a TGI (RXF 393 renal) of 575 nM and a GI50 (SF-268 CNS) of 1200 nM. It also gave a TGI (SF-268 CNS) of 2740 nM, a GI50 (SF-295 CNS) of 1610 nM and a TGI (SF-295 CNS) of 3030 nM. The GI50 (SF-539 CNS) was 926 nM, the TGI (SF-539 CNS) was 2250 nM and the GI50 (SK-MEL-2 melanoma) was 577 nM. It also gave a TGI (SK-MEL-2 melanoma) of 1550 nM, a GI50 (SK-MEL-28 melanoma) of 448 nM and a TGI (SK-MEL-28 melanoma) of 1510 nM. The GI50 (SK-MEL-5 melanoma) was 620 nM, the TGI (SK-MEL-5 melanoma) was 1770 nM and the GI50 (SK-OV-3 ovarian) was 1870 nM. It also gave a TGI (SK-OV-3 ovarian) of 3390 nM, a GI50 (SN12C renal) of 313 nM and a TGI (SN12C renal) of 1070 nM. The GI50 (SNB-19 CNS) was 1460 nM, the TGI (SNB-19 CNS) was 2830 nM and the GI50 (SNB-75 CNS) was 735 nM. For the same compound, the TGI (SNB-75 CNS) was 2160 nM, the GI50 (SR leukemia) was 243 nM and the TGI (SR leukemia) was 1230 nM. The GI50 (SW-620 colon) was 222 nM, the TGI (SW-620 colon) was 507 nM and the GI50 (T-47D breast) was 1350 nM. It also gave a TGI (T-47D breast) of 4460 nM, a GI50 (TK-10 renal) of 306 nM and a TGI (TK-10 renal) of 1010 nM. It also gave a GI50 (U251 CNS) of 1290 nM, a TGI (U251 CNS) of 2590 nM and a GI50 (UACC-257 melanoma) of 447 nM. The TGI (UACC-257 melanoma) was 1400 nM, the GI50 (UACC-62 melanoma) was 258 nM and the TGI (UACC-62 melanoma) was 749 nM. The GI50 (UO-31 renal) was 153 nM and the TGI (UO-31 renal) was 323 nM.

From PubChem BioAssay (NCI)
